Data set [1] can be described thus: Peak depolarizations produced by injections of 100 micro M Ins p3 isomers in nine cells. It is filed as cell-based.
A short description of data set [2]: Peak depolarizations produced by injections of 100 micro M Ins p3 isomers in six cells. The class given is cell-based.

Turning to `O=P(O)(O)OC1C(O)C(O)C(OP(=O)(O)O)C(OP(=O)(O)O)C1O` (stereo in doubt; form 1) [INOSITOL (1,4,5) (PHOSPHATE)3], the Depolarisation in data set [1] is given as 24 mV.

As to `O=P(O)(O)OC1C(O)C(O)C(OP(=O)(O)O)C(OP(=O)(O)O)C1O` (stereo in doubt; form 2) [INOSITOL (1,4,5) (PHOSPHATE)3], the Depolarisation in data set [2] came out at 32.5 mV.

On to `O=P(O)(O)OC1C(O)C(O)C(OP(=O)(O)O)C(OP(=O)(O)O)C1O` (stereo in doubt; form 3) [INOSITOL (1,4,5) (PHOSPHATE)3], for which the Depolarisation is on record as 3.4 mV in data set [2] and 5.7 mV in data set [1].

The values above are taken from ChEMBL document CHEMBL1127407, “Unambiguous total synthesis of the enantiomers of myo-inositol 1,3,4-trisphosphate: 1L-myo-inositol 1,3,4-trisphosphate mobilizes intracellular Ca2+ in Limulus photoreceptors” (J Med Chem, 1994).
